These results are taken from ChEMBL document CHEMBL5500369, “Design, synthesis, and biological evaluation of 5-(1H-indol-5-yl)isoxazole-3-carboxylic acids as novel xanthine oxidase inhibitors” (Eur J Med Chem, 2024).

The structures appear in SMILES notation.

In the first data set the target is T1, Xanthine dehydrogenase/oxidase (Bos taurus, UniProt P80457). Description: Inhibition of bovine xanthine oxidase using xanthine as substrate by measuring uric acid formation measured 30 secs interval for 5 mins by spectrophotometry analysis.
T1 sequence (P80457 whole entry): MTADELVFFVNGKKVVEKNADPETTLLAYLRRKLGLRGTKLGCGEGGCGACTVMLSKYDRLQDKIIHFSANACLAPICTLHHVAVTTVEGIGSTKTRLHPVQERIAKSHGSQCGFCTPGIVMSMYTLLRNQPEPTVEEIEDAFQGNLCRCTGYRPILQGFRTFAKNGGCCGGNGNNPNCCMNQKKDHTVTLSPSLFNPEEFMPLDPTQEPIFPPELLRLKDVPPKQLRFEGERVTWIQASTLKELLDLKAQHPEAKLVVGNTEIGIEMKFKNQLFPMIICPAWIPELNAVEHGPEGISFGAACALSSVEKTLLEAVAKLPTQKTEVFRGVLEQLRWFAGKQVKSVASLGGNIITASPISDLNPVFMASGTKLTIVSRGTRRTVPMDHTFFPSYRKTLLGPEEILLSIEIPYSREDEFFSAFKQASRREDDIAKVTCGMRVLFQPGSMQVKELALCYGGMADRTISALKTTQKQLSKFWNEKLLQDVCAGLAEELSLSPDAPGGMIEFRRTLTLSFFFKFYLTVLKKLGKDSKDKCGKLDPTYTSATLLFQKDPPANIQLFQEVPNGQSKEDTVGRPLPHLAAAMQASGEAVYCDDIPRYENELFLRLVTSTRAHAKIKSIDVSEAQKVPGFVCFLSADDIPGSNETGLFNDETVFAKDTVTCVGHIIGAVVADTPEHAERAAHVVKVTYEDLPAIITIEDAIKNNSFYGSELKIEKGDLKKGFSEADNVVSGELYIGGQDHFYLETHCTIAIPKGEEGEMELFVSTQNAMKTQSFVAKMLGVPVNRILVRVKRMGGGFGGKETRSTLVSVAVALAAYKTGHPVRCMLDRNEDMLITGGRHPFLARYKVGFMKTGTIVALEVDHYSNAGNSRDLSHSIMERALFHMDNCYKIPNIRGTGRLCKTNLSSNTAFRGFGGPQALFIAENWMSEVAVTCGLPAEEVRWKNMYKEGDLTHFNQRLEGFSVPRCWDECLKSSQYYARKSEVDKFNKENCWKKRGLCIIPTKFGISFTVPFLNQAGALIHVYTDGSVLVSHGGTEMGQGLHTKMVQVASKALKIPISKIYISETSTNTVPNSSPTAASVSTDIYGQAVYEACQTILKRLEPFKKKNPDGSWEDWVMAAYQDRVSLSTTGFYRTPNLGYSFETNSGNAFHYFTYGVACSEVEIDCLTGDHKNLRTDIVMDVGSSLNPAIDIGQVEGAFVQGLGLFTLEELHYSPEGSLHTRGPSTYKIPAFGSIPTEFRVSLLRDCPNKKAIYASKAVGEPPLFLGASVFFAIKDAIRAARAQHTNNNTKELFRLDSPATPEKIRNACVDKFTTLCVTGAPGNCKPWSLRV
Details: not given; call rule not given here
`N#Cc1cn(Cc2ccccc2)c2ccc(-c3cc(C(=O)O)no3)cc12` yielded an IC50 of 1030 nM.

Consider `CC(C)n1cc(C#N)c2cc(-c3cc(C(=O)O)no3)ccc21`, for which the IC50 amounted to 130 nM.

For `N#Cc1cn(Cc2ccc(Cl)cc2)c2ccc(-c3cc(C(=O)O)no3)cc12`, half-maximal inhibition (IC50) required 1260 nM.

`N#Cc1cn(Cc2ccc(F)cc2)c2ccc(-c3cc(C(=O)O)no3)cc12` yielded an IC50 of 600 nM.

In turn, `N#Cc1cn(Cc2cccc(F)c2)c2ccc(-c3cc(C(=O)O)no3)cc12` registered an IC50 of 1290 nM.

`CC(C)Cn1cc(C#N)c2cc(-c3cc(C(=O)O)no3)ccc21` returned an IC50 of 240 nM.

`CC#Cn1cc(C#N)c2cc(-c3cc(C(=O)O)no3)ccc21`: the IC50 worked out at 570 nM.

In turn, `N#Cc1cn(C2CCCC2)c2ccc(-c3cc(C(=O)O)no3)cc12` came in with an IC50 of 140 nM.

Molecule `N#Cc1c[nH]c2ccc(-c3cc(C(=O)O)no3)cc12` registered an IC50 of 3100 nM.

With `CC(C)CCn1cc(C#N)c2cc(-c3cc(C(=O)O)no3)ccc21`, the IC50 came out at 380 nM.

For `CCn1cc(C#N)c2cc(-c3cc(C(=O)O)no3)ccc21`, 560 nM corresponded to half-maximal inhibition (IC50).

Molecule `CCCCCn1cc(C#N)c2cc(-c3cc(C(=O)O)no3)ccc21` showed an IC50 of 600 nM.

`CC(C)=Cn1cc(C#N)c2cc(-c3cc(C(=O)O)no3)ccc21` displayed an IC50 of 190 nM.

`CCCCn1cc(C#N)c2cc(-c3cc(C(=O)O)no3)ccc21`: inhibition was half-maximal at 540 nM (IC50).

Molecule `C=CCn1cc(C#N)c2cc(-c3cc(C(=O)O)no3)ccc21` gave an IC50 of 390 nM.

Take `N#Cc1cn(Cc2cccc(Cl)c2)c2ccc(-c3cc(C(=O)O)no3)cc12`: the IC50 is 1840 nM.

`Cc1ccccc1Cn1cc(C#N)c2cc(-c3cc(C(=O)O)no3)ccc21`: the midpoint of inhibition, the IC50, lay at 260 nM.

`N#Cc1cn(Cc2ccc(Br)cc2)c2ccc(-c3cc(C(=O)O)no3)cc12` registered an IC50 of 1170 nM.

Molecule `N#Cc1cn(Cc2ccccc2Cl)c2ccc(-c3cc(C(=O)O)no3)cc12` gave an IC50 of 200 nM.

The molecule `N#Cc1cn(CC2CCCC2)c2ccc(-c3cc(C(=O)O)no3)cc12` registered an IC50 of 270 nM.

In turn, `N#Cc1cn(C2CCC2)c2ccc(-c3cc(C(=O)O)no3)cc12` gave an IC50 of 250 nM.

With `N#Cc1cn(Cc2ccccc2F)c2ccc(-c3cc(C(=O)O)no3)cc12`, half-maximal inhibition (IC50) required 310 nM.

`CCCn1cc(C#N)c2cc(-c3cc(C(=O)O)no3)ccc21` displayed an IC50 of 320 nM.

The target in the next data set is T1, Xanthine dehydrogenase/oxidase. Description: Inhibition of bovine xanthine oxidase using xanthine as substrate at 10.0 uM measured 30 secs interval for 5 mins by spectrophotometry relative to control. To be noted: cattle.
`CCOC(=O)c1cc(-c2ccc3c(c2)c(C#N)cn3C(C)C)on1`: the inhibition at 10 µM is under 50%.

As to `CC(C)=Cn1ccc2cc(-c3cc(C(=O)O)no3)ccc21`, the inhibition at 10 µM is under 50%.

The target is the same in a further data set. The data set is described as follows: Mixed type inhibition of bovine xanthine oxidase assessed as increase in Km with decrease in Vmax using xanthine as substrate at upto 0.30 uM by Lineweaver-Burk plot analysis. To be noted: cattle, 0.3 µM.
In the case of `CC(C)n1cc(C#N)c2cc(-c3cc(C(=O)O)no3)ccc21`, the “inhibition (INH)” value is reported as “Active”.

The target is the same in the next data set. The data set is described as follows: Binding affinity to bovine xanthine oxidase assessed as inhibition constant.
Details: not given
Take `CC(C)n1cc(C#N)c2cc(-c3cc(C(=O)O)no3)ccc21`: the Ki is 40 nM.

Target in the next data set: not listed separately
The data set is described as follows: Binding affinity to bovine xanthine oxidase/xanthine substrate complex assessed as inhibition constant. The arrangement: species or system Bos taurus.
Details: not given
`CC(C)n1cc(C#N)c2cc(-c3cc(C(=O)O)no3)ccc21`: the Ki is 360 nM.

For the next data set, the target named is T1, Xanthine dehydrogenase/oxidase. Description: Potency index, ratio of Allopurinol IC50 to test compound IC50 for inhibition of bovine xanthine oxidase using xanthine as substrate by measuring uric acid formation measured 30 secs interval for 5 mins by spectrophotometry analysis. Conditions: cattle.
With `CC(C)n1cc(C#N)c2cc(-c3cc(C(=O)O)no3)ccc21`, the “Ratio IC50” value is listed as 22.

In general, IC50 refers to the point on the concentration scale where inhibition reaches its midpoint. A lower IC50 goes with inhibition by little substance. As a reminder, the inhibition is the change of the read-out against control, counted positive when it falls. Usually Ki stands for a dissociation constant, usually derived from enzyme kinetics or from competition with a known ligand.
